Target: T1, luciferase (Photinus pyralis, UniProt P08659)
T1 construct: purchased Analytical Luminescent Laboratories (ALL), Sparks, Md. #2005
Assay: luciferin-luciferase chemiluminescent reaction with reactant mixture dried on reagent disc
Type: biochemical
Description: As discussed above, the inherent chemical and mechanical stability of the polymeric material is ideally suited for use as a medium on which to load the chemiluminescent reagents for the practice of the present invention. A number of commercial enterprises market luciferin-luciferase reagent kits for use in chemiluminescent reaction assays. One that the inventors have found to be particularly well suited for the practice of the present invention is the “Firelight®” luciferin-luciferase reagent kit provided by Analytical Luminescent Laboratories (ALL) of Sparks, Md. […] This provides for a greater intensity of luminescence, and faster reaction kinetics.
In the preparation of the reagent discs 48, the reactant concentrate is loaded, preferably drop-wise, onto the Merocel® CF50, obtained in pre-sterilized sheets. The coated sheets are then dried at ambient temperatures under a vacuum, and the reagent discs are cut from the sheets in an appropriate size and shape. Alternatively, discs may be cut first and then loaded with appropriate reagent solution. When loaded in such fashion with the reagent mixture, reagent discs, approximately 6 mm in diameter and approximately 1.5 mm in height, carry approximately 0.5 mg of the dried reactant mixture.
It is recognized in the prior art that trehalose will stabilize delicate materials while they are freeze-dried. […]

T1 sequence (P08659 whole entry): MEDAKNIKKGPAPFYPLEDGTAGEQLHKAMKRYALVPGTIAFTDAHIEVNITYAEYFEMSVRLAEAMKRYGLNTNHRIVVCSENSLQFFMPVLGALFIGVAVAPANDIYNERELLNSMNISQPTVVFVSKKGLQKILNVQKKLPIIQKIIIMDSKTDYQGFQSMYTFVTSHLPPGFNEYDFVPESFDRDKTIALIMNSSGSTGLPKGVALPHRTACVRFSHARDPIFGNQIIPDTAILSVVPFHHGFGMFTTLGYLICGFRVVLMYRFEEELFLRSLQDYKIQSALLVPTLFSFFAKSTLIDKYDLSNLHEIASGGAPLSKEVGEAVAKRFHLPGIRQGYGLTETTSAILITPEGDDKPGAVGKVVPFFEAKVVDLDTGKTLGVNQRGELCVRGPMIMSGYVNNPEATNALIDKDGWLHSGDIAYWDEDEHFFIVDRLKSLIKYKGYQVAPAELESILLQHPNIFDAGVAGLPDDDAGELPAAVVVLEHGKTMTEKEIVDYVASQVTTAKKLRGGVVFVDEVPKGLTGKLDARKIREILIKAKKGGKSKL

Question: For `OC[C@H]1O[C@H](O[C@H]2O[C@H](CO)[C@@H](O)[C@H](O)[C@H]2O)[C@H](O)[C@@H](O)[C@@H]1O` [trehalose, a-D-glucopyranosyl-a-D-glucopyranoside], which “observed luminescent intensities versus the same loading of reagents without the trehalose” value (6 mm×1.5 mm reagent disc, total loading approximately 4 mg, FIG. 12) is on record?
Answer: Its value is “more than twice”.

Question: And the “biochemical activity of the luciferase component of the reagent mixture” value (trehalose added to loading solution at levels approaching its saturation solubility)?
Answer: The value was “up to a doubling, or more”.

— patent publication US6541194B2, “Method for the detection of the presence of chemical species known to inhibit a chemiluminescent reaction” (Neogen Corporation, priority 2000, dated 2003)
